These compounds were tested on female mice (assay: Acute in vivo toxicity study). Settings: 5 or 45 mg/kg i.p. for 3 days.
Procedure: In the study design, 3-4 female mice/group were dosed with 0, 5 or 45 mg/kg of IBIS00553642, IBIS000408094, or IBIS00405746 for 3 days (i.p.). Clinical signs, body weights, clinical pathology, organ weights, and histopathology endpoints were evaluated.
A single dose toxicity study was performed to investigate the toxicity of representative compounds. Briefly, 3-4 female mice per group were administered 0, 5, or 45 mg/kg drug (intraperitoneal) on consecutive days for 3 days. At the end of the study, mice were sacrificed, and clinical signs, body weights, clinical pathology, organ weights, and histopathology endpoints were evaluated. […] The gross findings at necropsy were minor and limited to discolorations in liver and kidney or large gallbladder in 4/18 mice (no dose response and unclear relationship to drug). […] There were no drug-related effects on clinical pathology.

SMILES | Clinical Signs
CN(CCCOc1ccc2nc(N)n(CCCN3CCCCC3)c2c1)Cc1ccc[nH]1 [IBIS00408094] | No significant toxicity at 5 and 45 mg/kg doses.
CC1CCCCN1CCCn1c(N)nc2ccc(OCCCN(C)Cc3ccccn3)cc21 (stereo not drawn) [IBIS00553642] | No significant toxicity at 5 and 45 mg/kg doses.
CN(C)CCCn1c(N)nc2ccc(OCCCN[C@@H]3CCN(Cc4ccccc4)C3)cc21 [IBIS00405746] | No significant toxicity at 5 mg/kg dose.

Source: patent publication US20050124638A1, “Benzimidazoles and analogs thereof as antivirals” (priority 2003, published 2005)
